# Columns and labels:
# [1] = system: HK-2; experiment: Induction of apoptosis in human HK2 cells assessed as increase in Bax/Bcl2 ratio at 25 to 100 uM after 72 hrs by Western blot analysis; type: cell-based; conditions: hk-2, 72 h
# [2] = AUC (0 to t) in Sprague-Dawley rat at 100 mg/kg, po measured up to 24 hrs by LC-MS/MS analysis; type: ADME, organism-based; design: dose 100 mg/kg, time < 24 hr, route oral; conditions: in vivo
# [3] = system: HepG2 2.2.15; experiment: Cytotoxicity against human HepG2.2.15 cells assessed as reduction in cell viability incubated for 12 hrs followed by replacement of fresh medium containing compound and measured after 2 days by CCK-8 assay; type: functional
# [4] = Potency index, ratio of ADV drug concentration to compound concentration in mouse liver measured at 3 hrs; type: ADME, tissue-based; conditions: in vivo
# [5] = system: HK-2; experiment: Induction of apoptosis in human HK2 cells assessed as nuclear pyknosis at 25 to 100 uM measured after 72 hrs by Hoechst 33342 staining based fluorescence assay; type: cell-based; conditions: hk-2, 72 h
# [6] = system: HK-2; experiment: Induction of mitochondrial membrane dysfunction in human HK2 cells assessed as effect mitochondrial membrane potential at 100 uM after 72 hrs by JC-1 staining based flow cytometry; type: cell-based; conditions: hk-2, 72 h
# [7] = system: Hepatitis B virus; experiment: Antiviral activity against Hepatitis B virus infected in human HepG2.2.15 cells assessed as inhibition of viral DNA synthesis incubated for 2 days followed by replacement of fresh medium containing compound and measured at day 10 by RT-PCR analysis; type: functional, organism-based
# [8] = molecular target: T1, OAT1 (solute carrier family 22 member 6) (Homo sapiens, UniProt Q4U2R8); experiment: Safety index, ratio of Adefovir dipivoxil IC50 to compound IC50 for human OAT1 expressed in HEK293 cells; type: ADME, cell-based; conditions: read-out: Ratio IC50
# T1 sequence (Q4U2R8 whole entry): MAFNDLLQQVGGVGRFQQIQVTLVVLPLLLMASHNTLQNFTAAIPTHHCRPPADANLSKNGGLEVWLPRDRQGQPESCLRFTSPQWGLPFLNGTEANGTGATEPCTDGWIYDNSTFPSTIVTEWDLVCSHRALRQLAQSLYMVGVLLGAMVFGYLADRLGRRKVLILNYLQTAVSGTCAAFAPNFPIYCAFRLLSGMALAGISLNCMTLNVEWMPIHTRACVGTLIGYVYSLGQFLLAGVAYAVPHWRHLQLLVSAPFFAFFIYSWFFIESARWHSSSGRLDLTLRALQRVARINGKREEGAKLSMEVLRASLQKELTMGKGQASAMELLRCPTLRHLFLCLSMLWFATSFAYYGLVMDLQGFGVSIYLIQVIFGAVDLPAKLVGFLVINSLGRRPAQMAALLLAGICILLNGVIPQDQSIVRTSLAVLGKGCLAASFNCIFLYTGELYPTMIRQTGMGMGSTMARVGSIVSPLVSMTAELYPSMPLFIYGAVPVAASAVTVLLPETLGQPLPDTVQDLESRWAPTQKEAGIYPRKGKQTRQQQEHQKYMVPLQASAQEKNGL
# [9] = molecular target: T2, Solute carrier family 22 member 6 (Homo sapiens, UniProt Q4U2R8); experiment: Inhibition of human OAT1 expressed in HEK293 cells assessed as P-amino hippuric acid uptake inhibition incubated for 10 mins by UPLC-MS/MS method; type: ADME, cell-based
# T2 sequence (Q4U2R8 whole entry): T1 sequence (Q4U2R8 whole entry)
# [10] = system: HEK293; experiment: Substrate activity in human HEK293 cells harboring pEGFP-N1 empty vector assessed as compound uptake measured at 5 to 40 mins by UPLC-MS/MS method; type: ADME, cell-based
# [11] = system: HK-2; experiment: Induction of apoptosis in human HK2 cells assessed as early apoptotic cells at 50 uM measured after 72 hrs by Annexin V-FITC/propidium iodide staining based flow cytometry (reference value: 8.1%); type: cell-based; conditions: hk-2, 72 h
# [12] = Potency index, ratio of ADV drug concentration to compound concentration in mouse liver measured at 24 hrs; type: ADME, tissue-based; conditions: in vivo
# [13] = system: HK-2; experiment: Cytotoxicity against human HK2 cells assessed as cell viability at 25 to 100 uM after 72 hrs by MTT assay relative to control; type: cell-based; conditions: hk-2, 72 h
# [14] = system: HK-2; experiment: Induction of apoptosis in human HK2 cells assessed as induction of cleaved caspase 3 levels at 25 to 100 uM after 72 hrs by Western blot analysis; type: cell-based; conditions: hk-2, 72 h
# [15] = Drug distribution in mouse liver at 5.47 mg/kg, po measured at 60 mins by LC-MS/MS analysis; type: ADME, organism-based; conditions: read-out: Drug uptake
# [16] = Drug distribution in mouse liver at 5.47 mg/kg, po measured at 30 mins by LC-MS/MS analysis; type: ADME, organism-based; conditions: read-out: Drug uptake
# [17] = system: HK-2; experiment: Induction of apoptosis in human HK2 cells assessed as presence of apoptotic bodies at 25 to 100 uM measured after 72 hrs by Hoechst 33342 staining based fluorescence assay; type: cell-based; conditions: hk-2, 72 h
# [18] = Drug distribution in mouse liver at 5.47 mg/kg, po measured at 3 hrs by LC-MS/MS analysis; type: ADME, organism-based; conditions: read-out: Drug uptake
# [19] = Volume of distribution in Sprague-Dawley rat at 100 mg/kg, po measured up to 24 hrs by LC-MS/MS analysis; type: ADME, organism-based; conditions: in vivo
# [20] = Potency index, ratio of ADV drug concentration to compound concentration in mouse liver measured at 60 mins; type: ADME, tissue-based; conditions: in vivo, 1 h
# [21] = system: HK-2; experiment: Nephrotoxicity in human HK2 cells assessed as decrease in cell apoptosis at 25 to 100 uM measured after 72 hrs by Hoechst 33342 staining based fluorescence assay relative to ADV; type: toxicity; design: scale not given: the % may be the effect or the level left; conditions: hk-2, 72 h
# [22] = system: HEK293; experiment: Cytotoxicity against human HEK293 cells harboring pEGFP-N1 empty vector assessed as reduction in cell viability after 1 hr by MTT assay; type: cell-based; conditions: hek293, 1 h
# [23] = system: HK-2; experiment: Induction of apoptosis in human HK2 cells assessed as early apoptotic cells at 25 uM measured after 72 hrs by Annexin V-FITC/propidium iodide staining based flow cytometry (reference value: 8.1%); type: cell-based; conditions: hk-2, 72 h
# [24] = Drug distribution in mouse liver at 5.47 mg/kg, po measured at 24 hrs by LC-MS/MS analysis; type: ADME, organism-based; conditions: read-out: Drug uptake
# [25] = system: HK-2; experiment: Induction of apoptosis in human HK2 cells assessed as early apoptotic cells at 100 uM measured after 72 hrs by Annexin V-FITC/propidium iodide staining based flow cytometry (reference value: 8.1%); type: cell-based; conditions: hk-2, 72 h
# [26] = Selectivity index, ratio of CC50 for cytotoxicity against human HepG2.2.15 cells to EC50 for HBV infected in human HepG2.2.15 cells; type: toxicity, cell-based; conditions: read-out: Ratio CC50/EC50
# [27] = Potency index, ratio of ADV drug concentration to compound concentration in mouse liver measured at 30 mins; type: ADME, tissue-based; conditions: in vivo, 0.5 h
# [28] = system: HK-2; experiment: Induction of apoptosis in human HK2 cells assessed as dense staining at 25 to 100 uM measured after 72 hrs by Hoechst 33342 staining based fluorescence assay; type: cell-based; conditions: hk-2, 72 h
# [29] = Drug distribution in mouse liver at 5.47 mg/kg, po measured at 6 hrs by LC-MS/MS analysis; type: ADME, organism-based; conditions: read-out: Drug uptake
# [30] = system: HEK293; experiment: Cytotoxicity against human HEK293 cells expressing OAT1 assessed as reduction in cell viability after 1 hr by MTT assay; type: ADME, cell-based; conditions: hek293, 1 h
# [31] = Potency index, ratio of ADV drug concentration to compound concentration in mouse liver measured at 6 hrs; type: ADME, tissue-based; conditions: in vivo
# [32] = molecular target: T2, Solute carrier family 22 member 6; experiment: Substrate activity at human OAT1 expressed in HEK293 cells harboring pEGFP assessed as compound uptake measured after 20 mins by UPLC-MS/MS method; type: ADME, cell-based; conditions: hek293, 20 min
# [33] = system: HK-2; experiment: Reduction in mitochondrial membrane potential in human HK2 cells assessed as increase in green fluorescence at 25 to 100 uM after 72 hrs by JC-1 staining based flow cytometry; type: ADME, cell-based; conditions: hk-2, 72 h
# [34] = Drug distribution in mouse kidney at 5.47 mg/kg, po measured up to 24 hrs by LC-MS/MS analysis; type: ADME, organism-based; conditions: in vivo
# [35] = system: HK-2; experiment: Induction of apoptosis in human HK2 cells assessed as increase in Bax/Bcl2 ratio after 72 hrs by Western blot analysis; type: cell-based; conditions: hk-2, 72 h
# [36] = system: HEK293; experiment: Cytotoxicity against human HEK293 cells expressing OAT1 assessed as reduction in cell viability at 1000 uM after 1 hr by MTT assay relative to control; type: ADME, cell-based; conditions: hek293, 1 h
# [37] = system: OAT1; experiment: Selectivity ratio, ratio of substrate activity at human OAT1 expressed in HEK293 cells harboring pEGFP assessed as compound uptake to substrate activity in human HEK293 cells harboring pEGFP-N1 empty vector assessed as compound uptake; type: ADME, cell-based
# [38] = system: HK-2; experiment: Cytotoxicity against human HK2 cells assessed as reduction in cell viability after 72 hrs by MTT assay; type: cell-based; conditions: hk-2, 72 h
# [39] = system: HK-2; experiment: Reduction in mitochondrial membrane potential in human HK2 cells assessed as decrease in red fluorescence at 25 to 100 uM after 72 hrs by JC-1 staining based flow cytometry; type: ADME, cell-based; conditions: hk-2, 72 h
# [40] = system: HK-2; experiment: Induction of apoptosis in human HK2 cells assessed as increase in Bax level at 25 to 100 uM after 72 hrs by Western blot analysis; type: cell-based; conditions: hk-2, 72 h
# [41] = system: HK-2; experiment: Induction of apoptosis in human HK2 cells assessed as reduction in Bcl-2 expression at 25 to 100 uM after 72 hrs by Western blot analysis; type: cell-based; conditions: hk-2, 72 h
# [42] = system: HK-2; experiment: Cytotoxicity against human HK2 cells assessed as reduction in cell viability at 100 umol/L after 72 hrs by MTT assay relative to control; type: cell-based; conditions: hk-2, 72 h, 100 µM
# [43] = system: HK-2; experiment: Induction of mitochondrial membrane dysfunction in human HK2 cells assessed as reduction in mitochondrial potential at 100 uM after 72 hrs by JC-1 staining based flow cytometry; type: cell-based; conditions: hk-2, 72 h
smiles,measurement,setting,value
CC(C)C[C@@H](N)C(=O)OCCCOP(=O)(COCCn1cnc2c(N)ncnc21)OCCCOC(=O)CC[C@@H](C)[C@H]1CC[C@H]2[C@@H]3[C@@H](O)C[C@@H]4C[C@H](O)CC[C@]4(C)[C@H]3CC[C@]12C (some centres not stated),Activity,[1],Non-Toxic
same,AUCt,[2],4645.705 µg/L/h
same,CC50,[3],446 µM
same,Ratio,[4],3.4
same,Activity,[5],Non-Toxic
same,Activity,[6],Non-Toxic
same,EC50,[7],0.42 µM
same,selectivity ratio,[8],21
same,IC50,[9],286 µM
same,Activity,[10],< 60 pmol/min/mg
same,Activity,[11],6.1%
same,Ratio,[12],8.8
same,Activity,[13],Non-Toxic
same,Activity,[14],Non-Toxic
same,concentration at 1 h,[15],1070 ng/g
same,concentration at 0.5 h,[16],305 ng/g
same,Activity,[17],Non-Toxic
same,concentration at 3 h,[18],1160 ng/g
same,Vd,[19],78.716 L/kg
same,Ratio,[20],6.5
same,Activity,[21],37.4%
same,Activity,[22],Non-Toxic
same,Activity,[23],9.7%
same,concentration at 24 h,[24],695 ng/g
same,Activity,[25],5.9%
same,selectivity ratio,[26],1060
same,Ratio,[27],4.2
same,Activity,[28],Non-Toxic
same,concentration at 6 h,[29],721 ng/g
same,Activity,[30],Non-Toxic
same,Ratio,[31],4.8
same,Activity,[32],< 60 pmol/min/mg
CC(C)(C)C(=O)OCOP(=O)(COCCn1cnc2c(N)ncnc21)OCOC(=O)C(C)(C)C [ADEFOVIR DIPIVOXIL],Activity,[33],Toxic
same,Drug uptake,[34],Active
same,AUCt,[2],1655.225 µg/L/h
same,CC50,[3],439 µM
same,Activity,[5],Toxic
same,EC50,[7],3.09 µM
same,IC50,[9],13.5 µM
same,Activity,[11],18.9%
same,Activity,[35],Dose-dependent effect
same,Activity,[14],Toxic
same,Activity,[17],Toxic
same,Vd,[19],153.128 L/kg
same,Activity,[36],47.16%
same,uptake ratio,[37],7.5
same,Activity,[38],Dose-dependent effect
same,Activity,[39],Toxic
same,Activity,[23],16.8%
same,Activity,[25],43.3%
same,selectivity ratio,[26],142
same,Activity,[40],Toxic
same,Activity,[28],Toxic
same,Activity,[41],Toxic
same,Activity,[42],61.01%
same,Activity,[43],Toxic
same,Activity,[32],400 pmol/min/mg

# Source: ChEMBL document CHEMBL4346741, “Synthesis, pharmacological evaluation, and mechanistic study of adefovir mixed phosphonate derivatives bearing cholic acid and l-amino acid moieties for the treatment of HBV” (Bioorg Med Chem, 2019)
